This is an account of results in ChEMBL document CHEMBL1159217, “Anti-inflammatory activity of saikosaponins from Heteromorpha trifoliata” (1995).

What is called inhibition in vivo is the share of the control response that was lost under treatment.

What all share (assay type): functional
In test [1] the test system is Mus musculus. Nature of the test: Antiinflammatory activity in Swiss mouse assessed as inhibition of 12-O-tetradecanoylphorbol acetate-induced ear edema at 0.5 mg/ear administered tropically.
For test [2], the system named is Mus musculus. Nature of the test: Antiinflammatory activity in Swiss mouse assessed as inhibition of carrageenan-induced ear edema at 100 mg/kg, po administered 1 hr prior to carrageenan challenge measured after 3 hrs. In general terms: Carrageenan injected into the paw causes an acute inflammation.
The subject of test [3] is Mus musculus. Kind of test: Antiinflammatory activity in Swiss mouse assessed as inhibition of ethylphenylpropiolate-induced ear edema at 0.5 mg/ear administered tropically 16 hrs prior to ethylphenylpropiolate challenge.
The subject of test [4] is Mus musculus. Kind of test: Antiinflammatory activity in Swiss mouse assessed as inhibition of serotonin-induced ear edema at 50 mg/kg, sc. Conditions: route subcutaneous.
Test [5] relates to Mus musculus. Kind of test: Antiinflammatory activity in Swiss mouse assessed as inhibition of serotonin-induced ear edema at 50 mg/kg, sc in presence of actinomycin D administered simultaneously and 1.5 hrs after compound treatment for 3 hrs. Conditions: route subcutaneous. On the set-up: scale not given: the % may be the effect or the level left.
The subject of test [6] is Mus musculus. Nature of the test: Antiinflammatory activity in Swiss mouse assessed as inhibition of serotonin-induced ear edema at 50 mg/kg, sc in presence of cycloheximide administered simultaneously and 1.5 hrs after compound treatment for 3 hrs. Also noted: scale not given: the % may be the effect or the level left. Conditions: route subcutaneous.
Test [7] relates to Mus musculus. Nature of the test: Antiinflammatory activity in Swiss mouse assessed as inhibition of serotonin-induced ear edema at 50 mg/kg, sc in presence of progesterone administered 1 hr prior to compound treatment. Conditions: route subcutaneous.

Turning to `CO[C@@H]1C=C2[C@@H]3CC(C)(C)CC[C@]3(CO)[C@@H](O)C[C@@]2(C)[C@]2(C)CC[C@H]3[C@](C)(CO)[C@@H](O[C@@H]4O[C@H](C)[C@H](O)[C@H](O[C@@H]5O[C@H](CO)[C@@H](O)[C@H](O)[C@H]5O)[C@H]4O[C@@H]4O[C@H](CO)[C@@H](O)[C@H](O)[C@H]4O)CC[C@]3(C)[C@@H]12`, in test [1], the “inhibition (INH)” value was 87%. For the same molecule, the inhibition in vivo at 100 mg/kg in test [2] was 18%.
Take `C[C@H]1O[C@@H](O[C@H]2CC[C@@]3(C)[C@@H](CC[C@]4(C)[C@@H]3C=C[C@]35OC[C@@]6(CCC(C)(C)C[C@H]63)[C@@H](O)C[C@]54C)[C@]2(C)CO)[C@H](O[C@@H]2O[C@H](CO)[C@@H](O)[C@H](O)[C@H]2O)[C@@H](O[C@@H]2O[C@H](CO)[C@@H](O)[C@H](O)[C@H]2O)[C@H]1O` [BUDDLEJASAPONIN IV]: the “inhibition (INH)” value is 89% in test [1] and 59% in test [3]. In addition, in test [2], the inhibition in vivo at 100 mg/kg was determined as 23%. The inhibition in vivo at 50 mg/kg in test [4] stood at 48%. Further, the Activity in test [5] and in test [6] was 14% each time.
As for `C[C@@H]1C[C@H]2[C@@H]3CCC4=CC(=O)C=C[C@]4(C)[C@@]3(F)[C@@H](O)C[C@]2(C)[C@@]1(O)C(=O)CO` [DEXAMETHASONE], in test [3], the “inhibition (INH)” value is on record as 82%.
Consider `COc1ccc2c(c1)c(CC(=O)O)c(C)n2C(=O)c1ccc(Cl)cc1` [INDOMETHACIN], for which the “inhibition (INH)” value in test [1] was 89%.
For `CC(=O)[C@H]1CC[C@H]2[C@@H]3CCC4=CC(=O)CC[C@]4(C)[C@H]3CC[C@]12C` [PROGESTERONE], in test [7], the inhibition in vivo at 50 mg/kg came to 44%.
